Laboratory results as given in BindingDB's records for patent WO2022115301 (MERCK SHARP & DOHME LLC, 2022).

biological target: T1, Ceramide glucosyltransferase (Homo sapiens, UniProt Q16739); test: UDP-Glo Glucosylceramide Synthase Biochemical Assay
T1 sequence (Q16739 whole entry): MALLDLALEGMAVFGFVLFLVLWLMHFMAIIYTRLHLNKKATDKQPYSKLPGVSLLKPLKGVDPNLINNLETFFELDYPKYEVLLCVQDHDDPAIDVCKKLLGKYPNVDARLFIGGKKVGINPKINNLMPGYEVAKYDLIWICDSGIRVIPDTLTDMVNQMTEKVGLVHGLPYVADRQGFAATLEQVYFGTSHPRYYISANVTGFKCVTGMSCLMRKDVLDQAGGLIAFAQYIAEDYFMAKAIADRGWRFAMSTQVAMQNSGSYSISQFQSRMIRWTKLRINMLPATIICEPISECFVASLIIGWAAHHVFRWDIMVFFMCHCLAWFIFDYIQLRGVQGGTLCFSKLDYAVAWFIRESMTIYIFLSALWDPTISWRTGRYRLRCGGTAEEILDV
Experimental: Using Promega s UDP-Glo Glycosyltransferase assay kit (Promega Corporation, Madison, WI, USA (Promega)), GCS activity was indirectly measured by detecting the amount of UDP produced. An aliquot of GCS enzyme (1.5 µg crude golgi preparation, total protein) and titrated test compound were aliquoted to each well and incubated for 30 minutes at room temperature. […] An equivalent volume of substrate mixture was then added to each well. Following a 20 h incubation at room temperature to allow for GCS turnover of substrate, an equal volume of UDP detection reagent (Promega) was added to each well and incubated for an additional 75 minutes at room temperature to simultaneously convert the accumulated UDP product into ATP and generate light in a luciferase reaction. The generated light was detected using a luminometer. […] luminescence values (RLUs) were normalized to mean min and max effects, as determined on each plate. […] See Levenberg, K., A Method for the Solution of Certain Problems in Least Squares , Quart. Appl.

Row | EC50 [nM] | Structure (SMILES)
1 | 13 | Cn1ncc2cc(-c3cccc4c3C(=O)N([C@H](C3CC3)C(C)(C)O)C4)ccc21 [WO2022115301, Example 12]
2 | 52 | CC(C)(O)[C@@H](C1CC1)N1Cc2cccc(-c3ccc(-c4nnco4)cc3)c2C1=O [WO2022115301, Example 5]
3 | 9.2 | CN1Cc2cc(-c3cc(F)cc4c3C(=O)N([C@H](C3CC3)C(C)(C)O)C4)ccc2C1=O [WO2022115301, Example 25]
4 | 24 | Cc1nnc(-c2ccc(-c3cccc4c3C(=O)N([C@H](C3CC3)C(C)(C)O)C4)cc2F)o1 [WO2022115301, Example 9]
5 | 0.93 | Cn1cc(-c2ccc(-c3cc(F)cc4c3C(=O)N([C@H](C3CC3)C(C)(C)O)C4)cc2)cn1 [WO2022115301, Example 24]
6 | 3.6 | CC(C)(O)[C@@H](C1CC1)N1Cc2cccc(-c3ccccc3OCC(F)(F)F)c2C1=O [WO2022115301, Example 7]
7 | 4.9 | Cc1n[nH]c2cc(F)c(-c3cccc4c3C(=O)N([C@H](C3CC3)C(C)(C)O)C4)cc12 [WO2022115301, Example 11]
8 | 2.8 | COc1cc(Cl)cc(-c2cccc3c2C(=O)N([C@H](C2CC2)C(C)(C)O)C3)c1 [WO2022115301, Example 10]
9 | 4.5 | Cn1c(=O)n(C)c2cc(-c3cccc4c3C(=O)N([C@H](C3CC3)C(C)(C)O)C4)ccc21 [WO2022115301, Example 6]
10 | 48 | CC(C)(O)[C@@H](C1CC1)N1Cc2cccc(-c3cccc(OCC(F)(F)F)c3)c2C1=O [WO2022115301, Example 14]
11 | 6.4 | Cn1cc(-c2ccc(-c3cccc4c3C(=O)N([C@H](C3CC3)C(C)(C)O)C4)cc2)cn1 [WO2022115301, Example 15]
12 | 7.5 | COc1cc(C#N)cc(-c2cccc3c2C(=O)N([C@H](C2CC2)C(C)(C)O)C3)c1 [WO2022115301, Example 8]
13 | 580 | CC(C)(O)[C@@H](C1CC1)N1Cc2cccc(-c3ccc(-n4nccn4)cc3)c2C1=O [WO2022115301, Example 17]
14 | 39 | CC(C)(O)[C@@H](C1CC1)N1Cc2cccc(-c3cccc4c3OC(F)(F)O4)c2C1=O [WO2022115301, Example 16]
